In article PMC6017236, “Activation Profile Analysis of CruCA4, an α-Carbonic Anhydrase Involved in Skeleton Formation of the Mediterranean Red Coral, Corallium rubrum” (Molecules : A Journal of Synthetic Chemistry and Natural …, 2017):

Molecular target: T1, CruCA4 (Corallium rubrum, UniProt A0A1B0Y987)
T1 construct: gene CA4
Experiment: stopped-flow CO2 hydrase activation assay
Format: biochemical
Conditions: activation constant (activator); CO2 1.7-17 mM substrate, pH 7.5, 25 °C, 15 min pre-incubation
Text: stopped-flow CO2 hydrase activation assay on CruCA4

T1 sequence (A0A1B0Y987 entry or part of it): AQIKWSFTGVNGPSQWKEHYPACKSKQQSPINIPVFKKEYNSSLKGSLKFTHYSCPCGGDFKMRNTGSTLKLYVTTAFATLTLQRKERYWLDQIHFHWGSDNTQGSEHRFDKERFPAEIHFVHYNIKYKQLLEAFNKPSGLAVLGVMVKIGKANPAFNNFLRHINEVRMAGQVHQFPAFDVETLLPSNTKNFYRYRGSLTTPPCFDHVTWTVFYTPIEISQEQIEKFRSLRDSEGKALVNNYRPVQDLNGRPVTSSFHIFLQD

SMILES	KA (μM) * / CruCA4 ^b [µM]
N[C@@H](Cc1cnc[nH]1)C(=O)O [compound 1, L-His]	36.9
N[C@@H](Cc1ccc(O)c(O)c1)C(=O)O [compound 5, L-DOPA]	13.7
N[C@H](Cc1ccccc1)C(=O)O [compound 4, D-Phe]	1.01
N[C@H](Cc1ccc(O)c(O)c1)C(=O)O [compound 6, D-DOPA]	0.93
N[C@H](Cc1c[nH]cn1)C(=O)O [compound 2, D-His]	0.098

The next lines start with the values.

KA (μM) * / CruCA4 ^b [µM]	SMILES
9.48	N[C@@H](Cc1c[nH]c2ccccc12)C(=O)O [compound 7, L-Trp]
0.41	NCc1ccccn1 [compound 15, 2-Pyridyl-methylamine]
0.004	NCCN1CCNCC1 [compound 17, 1-(2-Aminoethyl)-piperazine]
0.074	Nc1ccc(C[C@H](N)C(=O)O)cc1 [compound 11, 4-H2N-L-Phe]
8.35	N[C@H](Cc1c[nH]c2ccccc12)C(=O)O [compound 8, D-Trp]
0.15	NCCN1CCOCC1 [compound 18, 4-(2-Aminoethyl)-morpholine]
